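Compound exposure: 48 hours, 5 concentrations, 96-well plates. GI50 is the concentration that inhibits growth by half.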 Activity calls are given as the source filed them. Cut-off read from the data, not from the text of the source: active = GI50 up to about 1.1 µM and inactive = higher.

Test systems include SF-295; A549; MCF7; IGROV-1; ACHN; COLO 205; MDA-MB-231; Hs-578T; K562; MDA-MB-435; SK-MEL-5; NCI-H226; SF-539; OVCAR-4; SK-MEL-28; UACC-257; SK-MEL-2; EKVX; LOX IMVI; HCT-15.
Common to all, as to experiment: NCI tumour cell line growth inhibition, 48 h

On to `CN1Cc2cc(O)c(O)cc2C(O)C1` (stereo unspecified), for which the GI50 in the experiment with SF-295, with A549, in the experiment with MCF7, in the experiment on IGROV-1, in the experiment with ACHN and with COLO 205 was > 100 µM (inactive) throughout. Moreover, the GI50 in the experiment on MDA-MB-231 was > 100 µM (inactive); with Hs-578T, > 100 µM (inactive); with K562, > 100 µM (inactive); with MDA-MB-435, 82.6 µM (inactive); in the experiment on SK-MEL-5, > 100 µM (inactive); in the experiment with NCI-H226, > 100 µM (inactive). The GI50 with SF-539, with OVCAR-4, with SK-MEL-28, in the experiment on UACC-257, in the experiment with SK-MEL-2 and in the experiment with EKVX was > 100 µM (inactive) each time. The GI50 in the experiment with LOX IMVI was 69.2 µM (inactive).
For `Cc1ccc(OCC2OC(C#N)C(Oc3ccc(C)cc3)C2Oc2ccc(C)cc2)cc1` (stereo unspecified), the GI50 in the experiment with SF-295, with A549, with MCF7, with IGROV-1, in the experiment with COLO 205 and in the experiment on MDA-MB-231 was > 100 µM (inactive) throughout. In addition, the GI50 with Hs-578T was > 100 µM (inactive); in the experiment on K562 it was > 100 µM (inactive); with MDA-MB-435 it was > 100 µM (inactive); in the experiment on SK-MEL-5, > 100 µM (inactive); in the experiment on NCI-H226 it was > 100 µM (inactive); in the experiment with HCT-15 it was above 100 µM. For the same compound, the GI50 in the experiment with SF-539 is > 100 µM (inactive); in the experiment on OVCAR-4, > 100 µM (inactive); in the experiment with SK-MEL-28, > 100 µM (inactive); with SK-MEL-2, 51.8 µM (inactive); in the experiment with EKVX, > 100 µM (inactive).
Regarding `Cc1ccc2c(c1C)CC1(Cc3c(ccc4c3CCC4)C1=O)C2=O` (stereo unspecified), the GI50 is > 100 µM (inactive) in the experiment with SF-295; > 100 µM (inactive) in the experiment on A549; 21.9 µM (inactive) in the experiment on MCF7; > 100 µM (inactive) with IGROV-1; > 100 µM (inactive) in the experiment with ACHN; > 100 µM (inactive) in the experiment with COLO 205. Moreover, the GI50 with MDA-MB-231 is > 100 µM (inactive); in the experiment with Hs-578T, > 100 µM (inactive); in the experiment on K562, > 100 µM (inactive); with MDA-MB-435, 46.3 µM (inactive); in the experiment with SK-MEL-5, > 100 µM (inactive); in the experiment on NCI-H226, > 100 µM (inactive). Moreover, the GI50 in the experiment with HCT-15 was above 100 µM; in the experiment on SF-539, 0.652 µM (active); in the experiment on OVCAR-4, > 100 µM (inactive); with SK-MEL-28 it was > 100 µM (inactive); with UACC-257, > 100 µM (inactive); with SK-MEL-2 it was > 100 µM (inactive). Moreover, the GI50 with EKVX was > 100 µM (inactive).
Take `COc1cc(/C=C2/SC(c3ccccc3)N(c3cccc(Cl)c3)C2=O)cc(OC)c1OC` (stereo unspecified): the GI50 in the experiment with SF-295 was 8.22 µM (inactive); in the experiment on A549 it was 54.5 µM (inactive); with MCF7, 24 µM (inactive); in the experiment on ACHN it was 19.3 µM (inactive); with COLO 205, 56.1 µM (inactive); with MDA-MB-231, 67 µM (inactive). Further, the GI50 is 47 µM (inactive) in the experiment with Hs-578T; 13.5 µM (inactive) in the experiment with K562; 17.6 µM (inactive) in the experiment on MDA-MB-435; 29.5 µM (inactive) in the experiment with SK-MEL-5; 42.7 µM (inactive) in the experiment with NCI-H226; 20.7 µM in the experiment on HCT-15. In addition, the GI50 with SF-539 was 22.5 µM (inactive); in the experiment with OVCAR-4 it was 41 µM (inactive); with SK-MEL-28, 26.2 µM (inactive); in the experiment with UACC-257 it was 40.1 µM (inactive); in the experiment with SK-MEL-2, 59.3 µM (inactive); in the experiment with EKVX, 41.3 µM (inactive). The GI50 in the experiment with LOX IMVI was 12.1 µM (inactive).
With `COc1ccc(/N=C2/SC(=N/N=c3\sc4ccccc4n3C)S/C2=N/c2ccc(OC)cc2)cc1`, the GI50 in the experiment on SF-295 was 51.8 µM (inactive); with A549, 20.4 µM (inactive); in the experiment with MCF7, > 100 µM (inactive); in the experiment with IGROV-1, > 100 µM (inactive); with ACHN it was 36.8 µM (inactive); with COLO 205, > 100 µM (inactive). In addition, the GI50 in the experiment with MDA-MB-231 was 2.97 µM (inactive); with Hs-578T it was 36.2 µM (inactive); with K562 it was 2.92 µM (inactive); with MDA-MB-435, > 100 µM (inactive); with SK-MEL-5, 98.9 µM (inactive); with NCI-H226 it was 49 µM (inactive). In addition, the GI50 is above 100 µM with HCT-15; > 100 µM (inactive) with SF-539; > 100 µM (inactive) with SK-MEL-28; > 100 µM (inactive) with UACC-257; > 100 µM (inactive) in the experiment on SK-MEL-2; > 100 µM (inactive) in the experiment with EKVX.
With `O=c1[nH]cnc2c1ncn2[C@H]1CO[C@@H](CO)[C@@H]1O`, the GI50 with SF-295, in the experiment with MCF7, in the experiment on IGROV-1, with ACHN, with COLO 205 and with MDA-MB-231 was > 100 µM (inactive) each time. Besides, the GI50 is > 100 µM (inactive) in the experiment with Hs-578T; > 100 µM (inactive) with K562; > 100 µM (inactive) in the experiment with MDA-MB-435; > 100 µM (inactive) in the experiment on SK-MEL-5; > 100 µM (inactive) in the experiment with NCI-H226; above 100 µM in the experiment on HCT-15. Also, the GI50 in the experiment with SF-539, in the experiment on OVCAR-4, in the experiment with SK-MEL-28, in the experiment with UACC-257, with SK-MEL-2 and in the experiment on EKVX was > 100 µM (inactive) throughout. Besides, the GI50 in the experiment on LOX IMVI is > 100 µM (inactive).
Turning to `Cc1cccc(NC(=O)/C=C/c2ccccc2)c1C`, the GI50 with SF-295, in the experiment on A549, with MCF7, in the experiment with ACHN, with COLO 205 and with MDA-MB-231 was > 100 µM (inactive) each time. The GI50 in the experiment with Hs-578T is 37.7 µM (inactive); with K562, > 100 µM (inactive); with MDA-MB-435 it was > 100 µM (inactive); in the experiment with SK-MEL-5, > 100 µM (inactive); with NCI-H226 it was > 100 µM (inactive); in the experiment with HCT-15, above 100 µM. Further, the GI50 in the experiment with SF-539, with OVCAR-4, in the experiment on SK-MEL-28, in the experiment on UACC-257, with SK-MEL-2 and in the experiment on EKVX was > 100 µM (inactive) each time. In the experiment with LOX IMVI, the GI50 is > 100 µM (inactive).
For the compound `CN(CC(=O)N1CC(CCl)c2ccc([N+](=O)[O-])cc21)CC(=O)N1CC(CCl)c2ccc([N+](=O)[O-])cc21` (stereo unspecified), the GI50 was > 100 µM (inactive) with SF-295; > 100 µM (inactive) with A549; > 100 µM (inactive) in the experiment on MCF7; 34.9 µM (inactive) with IGROV-1; > 100 µM (inactive) with ACHN; > 100 µM (inactive) in the experiment on COLO 205. For the same compound, the GI50 with MDA-MB-231 was > 100 µM (inactive); with Hs-578T, > 100 µM (inactive); in the experiment on K562, > 100 µM (inactive); in the experiment with MDA-MB-435 it was 83.9 µM (inactive); in the experiment on SK-MEL-5, 98.9 µM (inactive); with NCI-H226 it was > 100 µM (inactive). Further, the GI50 in the experiment with HCT-15 was above 100 µM; in the experiment on SF-539, > 100 µM (inactive); in the experiment with SK-MEL-28, > 100 µM (inactive); in the experiment with UACC-257, > 100 µM (inactive); with SK-MEL-2, 97.9 µM (inactive); with EKVX it was > 100 µM (inactive). Further, the GI50 in the experiment on LOX IMVI is > 100 µM (inactive).
With `O=c1n(-c2ccccc2)c(=O)n2n1C1C=CC2CCCCCC1`, the GI50 in the experiment on SF-295, with A549, in the experiment on MCF7, in the experiment on IGROV-1, with ACHN and in the experiment on COLO 205 was > 100 µM (inactive) throughout. For the same compound, the GI50 in the experiment with MDA-MB-231 is > 100 µM (inactive); in the experiment on Hs-578T, 36.1 µM (inactive); in the experiment on MDA-MB-435, > 100 µM (inactive); in the experiment on SK-MEL-5 it was > 100 µM (inactive); in the experiment on NCI-H226 it was > 100 µM (inactive); in the experiment on HCT-15 it was above 100 µM. Further, the GI50 with SF-539, in the experiment with OVCAR-4, in the experiment with SK-MEL-28, in the experiment on UACC-257, in the experiment with SK-MEL-2 and in the experiment with EKVX was > 100 µM (inactive) in each case. Also, in the experiment with LOX IMVI, the GI50 is > 100 µM (inactive).
As for `Cc1cccc(C2NC(=O)c3ccccc3N2)c1` (stereo unspecified), the GI50 with SF-295 is 2.88 µM (inactive); in the experiment with A549, 6.12 µM (inactive); in the experiment with MCF7, 3.15 µM (inactive); in the experiment on IGROV-1 it was 4.62 µM (inactive); with ACHN, 12.9 µM (inactive); with COLO 205 it was 4.19 µM (inactive). The GI50 in the experiment on MDA-MB-231 was 25.8 µM (inactive); with Hs-578T it was 8.43 µM (inactive); in the experiment with K562, 0.906 µM (active); in the experiment with MDA-MB-435 it was 0.399 µM (active); in the experiment on SK-MEL-5, 3.38 µM (inactive); with NCI-H226, 5.35 µM (inactive). For the same compound, the GI50 with HCT-15 is 2.85 µM; in the experiment on SF-539 it was 2.33 µM (inactive); in the experiment with OVCAR-4, > 49.1 µM (inactive); in the experiment with SK-MEL-28, > 28.7 µM (inactive); in the experiment on UACC-257, > 31.3 µM (inactive); in the experiment with EKVX it was 7.76 µM (inactive). Further, in the experiment with LOX IMVI, the GI50 was > 27 µM (inactive).
As for `O=C1/C(=C/c2cccc([N+](=O)[O-])c2)CCCc2ccccc21`, the GI50 is 14.6 µM (inactive) in the experiment with SF-295; 19.9 µM (inactive) with A549; 3.92 µM (inactive) in the experiment on MCF7; 11 µM (inactive) with IGROV-1; 13.7 µM (inactive) in the experiment on ACHN; 18.8 µM (inactive) with COLO 205. For the same compound, the GI50 was 17 µM (inactive) in the experiment on MDA-MB-231; 3.94 µM (inactive) with Hs-578T; 3.27 µM (inactive) in the experiment with K562; 9.66 µM (inactive) with MDA-MB-435; 16.2 µM (inactive) in the experiment with NCI-H226; 10.6 µM in the experiment with HCT-15. In addition, the GI50 in the experiment on SF-539 is 15.3 µM (inactive); in the experiment on OVCAR-4 it was 13.7 µM (inactive); in the experiment on SK-MEL-28 it was 15.3 µM (inactive); in the experiment with UACC-257, 16.6 µM (inactive); in the experiment on SK-MEL-2 it was 11 µM (inactive); in the experiment on EKVX, 16 µM (inactive). Further, the GI50 in the experiment on LOX IMVI is 3.4 µM (inactive).
